Laboratory results reported in US20200123271A1, “COMPOSITION FOR ENHANCING SENSITIVITY OF PROSTATE CANCER TO ANTICANCER DRUG AND USE THEREOF” (KOREA INSTITUTE OF SCIENCE AND TECHNOLOGY, priority 2018, published 2020).

Experiments:
Format in all cases: cell-based
caspase 3/7 = experiment: Expression of caspase 3/7 (luminescence assay)
Description: NCI-H660 and LNCaP cells were seeded on black transparent bottom 96-well plates at a density of 10^4 cells/well. After 24 hours, the cells were treated with CRISPR ERG, crisprTMPRSS2-ERG, and 30 μM casodex, respectively, for 48 hours. 50 μL of a caspase 3/7 assay buffer (Promega, USA) was added thereto, followed by incubation at room temperature for 1 hour. Then, the activity of caspase 3/7 was detected by measuring luminescence.

TMPRSS2-ERG gene = experiment: Expression of TMPRSS2-ERG gene by RNA extraction, cDNA synthesis and PCR; details: CRISPR treated in combination with 30 μM casodex, 48 hours (FIG. 2C)
Description: To identify whether the ERG gene of the cell line prepared in Example 2 was knocked out, expression of the gene was identified by extracting RNA and synthesizing cDNA.
NCI-H660 and LNCaP cell lines were seeded on 6-well plates at a density of 2×10^5 cells/well. After 24 hours, the cells were treated with CRISPR ERG, CRISPR TMPRSS2-ERG, and 30 μM casodex, respectively, for 48 hours. 1 mL of Trizol was added thereto to lyse the cells and the samples were homogenized by voltexing. 100 μL of chloroform was added thereto to separate RNA included in a transparent upper aqueous layer from proteins included in a lower organic layer. The solution was vigorously shaken and incubated at room temperature for 3 minutes. The resultant was centrifuged at 4° C. for 15 minutes at 13,000 rpm to obtain a clean aqueous layer including total RNA. Subsequently, the supernatant of the sample was transferred to a new tube and […] of isopropanol was added to each sample to precipitate RNA. The sample was incubated at room temperature for 10 minutes, and then centrifuged at 13,000 rpm at 4° C. for 15 minutes to obtain pellets of total RNA. Then, the supernatant was decanted and RNA was washed with 1 mL of 75% ethanol. […] RNA was resuspended in RNase-free water and absorbance of RNA was measured at 260 nm to determine a concentration of RNA. […]

NCI-H660 cells = experiment: Cell viability, CellTiter 96 aqueous one solution cell proliferation assay
Description: (§1) NCI-H660 and LNCaP cells were seeded on transparent 96-well plates at a density of 10^4 cells/well. […] 10 μL of a CellTiter 96 aqueous one solution cell proliferation assay buffer (Promega, USA) was added thereto, followed by incubation at 37° C. for 1 hour. Then, cell viability was evaluated by measuring absorbance at […].
(§2) NCI-H660 and LNCaP cells were seeded on transparent 96-well plates at a density of 10^4 cells/well. After 24 hours, the cells were treated with CRISPR ERG, CRISPR TMPRSS2-ERG, and 30 μM casodex, respectively, for 48 hours. 10 μL of a CellTiter 96 aqueous one solution cell proliferation assay buffer (Promega, USA) was added thereto, followed by incubation at 37° C. for 1 hour. Then, cell viability was evaluated by measuring absorbance at […].

LNCaP cells = experiment: as above
Description: as §1, §2

pgp = experiment: Expression of Pgp (pgp-glo assay, ATP level by luminescence)
Description: NCI-H660 and LNCaP cells were seeded on white transparent bottom 96-well plates at a density of 10^4 cells/well. After 24 hours, the cells were treated with CRISPR ERG, crisprTMPRSS2-ERG, and 30 μM casodex, respectively, for 48 hours. 20 μL of a pgp-glo assay buffer (Promega, USA) was added to all wells except for Na3VO4 condition. 20 μL of 0.25 mM Na3VO4 was added to the Na3VO4 condition. Reaction was initiated by adding 10 μL of 25 mM MgATP. The plates were mixed for a while and then incubated at 37° C. for 40 minutes. The 40 μL of an ATP detection reagent was added to all wells. Then, the plates were incubated at room temperature for 20 minutes and luminescence was measured.

[1] = tested on: alpha tubulin, beta3 tubulin; experiment: Activity of tubulin protein (Western blotting); details: LNCaP cells, knock-out (FIG. 4)
Description: NCI-H660 and LNCaP cell lines were seeded on 6-well plates at a density of 2×10^5 cells/well. After 24 hours, the cells were treated with CRISPR ERG, CRISPR TMPRSS2-ERG, and 30 μM casodex, respectively, for 48 hours. The cells were lysed using Pro-prep protein extraction solution (Intron Biotechnology, South Korea). Cell lysates were quantified using a BCA protein assay kit (Thermo Fisher Scientific, USA).
Then, the expression of proteins was identified by Western blotting. Specifically, SDS 5× loading buffer was added to protein samples diluted to 10-20 μg and heated for 5 minutes. The samples were placed in 4-20% Mini-protean TGX gel (Biorad, USA) and run at 120 V for 60 minutes. Then, the gel was transferred to a nitrocellulose membrane at 300 mA for 90 minutes. The membrane was blocked by 3% BSA in PBS and incubated overnight with a primary antibody in PBS containing 1% BSA at 4° C. The membrane was washed three times with PBS containing with 0.01% Tween 20. A secondary antibody was cultured in a PBS containing 1% BSA for 1 hour at room temperature. The membrane was washed three times with PBS containing 0.01% Tween 20. Then, the membrane was visualized with LAS-3000 (Fujifilm, Japan).

[2] = LNCaP cells, knock-out in combination with 30 μM casodex (FIG. 3C)
[3] = normal and resistant LNCaP cells, knock-out alone (FIG. 3C)

CC(O)(CS(=O)(=O)c1ccc(F)cc1)C(=O)Nc1ccc(C#N)c(C(F)(F)F)c1 (stereo not drawn) [casodex]
expression of caspase 3/7 (caspase 3/7; 30 μM casodex in combination with CRISPR TMPRSS2-ERG, 48 hours, compared with CRISPR TMPRSS2-ERG alone (FIG. 2D)): more significantly increased
expression level of TMPRSS2-ERG gene (TMPRSS2-ERG gene; LNCaP cell line): significantly reduced
expression level of TMPRSS2-ERG gene (TMPRSS2-ERG gene; NCI-H660 cell line): significantly reduced
cell viability (NCI-H660 cells; 30 μM casodex in combination with CRISPR TMPRSS2-ERG, 48 hours, compared with CRISPR TMPRSS2-ERG alone (FIG. 2B)): significantly reduced
cell viability (NCI-H660 cells; casodex concentration in the range of 100 μM to 200 μM (FIG. 2B)): significantly reduced
cell viability (LNCaP cells; 30 μM casodex in combination with CRISPR TMPRSS2-ERG, 48 hours, compared with CRISPR TMPRSS2-ERG alone (FIG. 2A)): significantly reduced
cell viability (LNCaP cells; casodex concentration in the range of 100 μM to 200 μM (FIG. 2A)): significantly reduced

CRISPR TMPRSS2-ERG: CRISPR sgRNA for TMPRSS2-ERG, 5′AAGGCTTCCTGCCGCGCTCCAGG 3′, delivered with Cas9 nuclease to knock out TMPRSS2-ERG (listed as DNA, chemistry not given here; the letters are possibly those of the target site)
ATP level (pgp; [2]): significantly increased
ATP level (pgp; [3]): significantly increased
expression of caspase 3/7 (caspase 3/7; cell line treated with CRISPR TMPRSS2-ERG alone, 48 hours (FIG. 2D)): significantly increased
amount of polymeric alpha tubulin [1]: decreased
amount of water-soluble alpha tubulin [1]: increased
beta3 tubulin [1]: no significant difference

CRISPR ERG: CRISPR sgRNA for ERG, 5′TGCCTACGGAACGCCACACCTGG 3′, delivered with Cas9 nuclease to knock out ERG (listed as DNA, chemistry not given here; the letters are possibly those of the target site)
ATP level (pgp; [2]): significantly increased
ATP level (pgp; [3]): significantly increased
amount of polymeric alpha tubulin [1]: decreased
amount of water-soluble alpha tubulin [1]: increased
beta3 tubulin [1]: no significant difference
